Data: PubChem BioAssay (NCI)
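96-well plates; 48 h exposure; 5 concentrations. Endpoints by linear interpolation between flanking doses. Not reached: highest tested concentration assigned. At the TGI there is no net growth.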

Tests used:
Assay in all cases: NCI tumour cell line growth inhibition, 48 h
OVCAR-5 ovarian = system: OVCAR-5 ovarian
SR leukemia = system: SR leukemia
RXF 393 renal = system: RXF 393 renal
TK-10 renal = system: TK-10 renal
SW-620 colon = system: SW-620 colon
HCT-15 colon = system: HCT-15 colon
BT-549 breast = system: BT-549 breast
SN12C renal = system: SN12C renal
SK-MEL-28 melanoma = system: SK-MEL-28 melanoma
T-47D breast = system: T-47D breast
SK-MEL-2 melanoma = system: SK-MEL-2 melanoma
SK-OV-3 ovarian = system: SK-OV-3 ovarian
PC-3 prostate = system: PC-3 prostate
HS 578T breast = system: HS 578T breast
EKVX NSCLC = system: EKVX NSCLC
M14 melanoma = system: M14 melanoma
HL-60(TB) leukemia = system: HL-60(TB) leukemia
HT29 colon = system: HT29 colon
A549 NSCLC = system: A549 NSCLC
A498 renal = system: A498 renal
NCI-H23 lung = system: NCI-H23 lung
COLO 205 colon = system: COLO 205 colon
SNB-19 CNS = system: SNB-19 CNS
SNB-75 CNS = system: SNB-75 CNS
U251 CNS = system: U251 CNS
HCT-116 colon = system: HCT-116 colon
LOX IMVI melanoma = system: LOX IMVI melanoma
HCC-2998 colon = system: HCC-2998 colon
MDA-N = system: MDA-N
SF-539 CNS = system: SF-539 CNS
SF-268 CNS = system: SF-268 CNS
ACHN renal = system: ACHN renal
CAKI-1 renal = system: CAKI-1 renal
MDA-MB-435 = system: MDA-MB-435
786-0 renal = system: 786-0 renal
SK-MEL-5 melanoma = system: SK-MEL-5 melanoma
NCI/ADR-RES ovarian = system: NCI/ADR-RES ovarian
UACC-257 melanoma = system: UACC-257 melanoma
IGROV1 ovarian = system: IGROV1 ovarian
OVCAR-8 ovarian = system: OVCAR-8 ovarian
OVCAR-4 ovarian = system: OVCAR-4 ovarian
CCRF-CEM leukemia = system: CCRF-CEM leukemia
UACC-62 melanoma = system: UACC-62 melanoma
NCI-H226 lung = system: NCI-H226 lung
MCF7 breast = system: MCF7 breast
MOLT-4 leukemia = system: MOLT-4 leukemia
OVCAR-3 ovarian = system: OVCAR-3 ovarian
DU-145 prostate = system: DU-145 prostate
HOP-92 NSCLC = system: HOP-92 NSCLC
MALME-3M melanoma = system: MALME-3M melanoma
MDA-MB-231 breast = system: MDA-MB-231 breast
HOP-62 NSCLC = system: HOP-62 NSCLC
RPMI-8226 leukemia = system: RPMI-8226 leukemia
NCI-H460 lung = system: NCI-H460 lung
KM12 colon = system: KM12 colon
UO-31 renal = system: UO-31 renal
K-562 leukemia = system: K-562 leukemia
SF-295 CNS = system: SF-295 CNS
NCI-H522 lung = system: NCI-H522 lung

## CCOC(=O)C(NC(=O)Nc1ccc(Cl)cc1)(OC)C(F)(F)F (configuration not stated)
OVCAR-5 ovarian
  TGI: > 100 µM
SR leukemia
  TGI: > 100 µM
RXF 393 renal
  TGI: > 100 µM
TK-10 renal
  TGI: > 100 µM
SW-620 colon
  TGI: > 100 µM
HCT-15 colon
  TGI: > 100 µM
BT-549 breast
  TGI: > 100 µM
SN12C renal
  TGI: > 100 µM
SK-MEL-28 melanoma
  TGI: > 100 µM
T-47D breast
  TGI: > 100 µM
SK-MEL-2 melanoma
  TGI: 64.8 µM
SK-OV-3 ovarian
  TGI: > 100 µM
PC-3 prostate
  TGI: > 100 µM
HS 578T breast
  TGI: > 100 µM
EKVX NSCLC
  TGI: > 100 µM
M14 melanoma
  TGI: > 100 µM
HL-60(TB) leukemia
  TGI: > 100 µM
HT29 colon
  TGI: > 100 µM
A549 NSCLC
  TGI: > 100 µM
A498 renal
  TGI: > 100 µM
NCI-H23 lung
  TGI: > 100 µM
COLO 205 colon
  TGI: > 100 µM
SNB-19 CNS
  TGI: > 100 µM
SNB-75 CNS
  TGI: > 100 µM
U251 CNS
  TGI: > 100 µM
HCT-116 colon
  TGI: > 100 µM
LOX IMVI melanoma
  TGI: > 100 µM
HCC-2998 colon
  TGI: 32.7 µM
MDA-N
  TGI: > 100 µM
SF-539 CNS
  TGI: > 100 µM
SF-268 CNS
  TGI: > 100 µM
ACHN renal
  TGI: > 100 µM
CAKI-1 renal
  TGI: > 100 µM
MDA-MB-435
  TGI: > 100 µM
786-0 renal
  TGI: > 100 µM
SK-MEL-5 melanoma
  TGI: > 100 µM
NCI/ADR-RES ovarian
  TGI: > 100 µM
UACC-257 melanoma
  TGI: > 100 µM
IGROV1 ovarian
  TGI: > 100 µM
OVCAR-8 ovarian
  TGI: > 100 µM

## Nc1nc(Nc2ccccc2)sc1C(=O)c1ccco1
OVCAR-4 ovarian
  TGI: 50.5 µM
OVCAR-5 ovarian
  TGI: 71.5 µM
SR leukemia
  TGI: 25.2 µM
RXF 393 renal
  TGI: 30.8 µM
TK-10 renal
  TGI: 35.9 µM
SW-620 colon
  TGI: 67.4 µM
HCT-15 colon
  TGI: 50.9 µM
CCRF-CEM leukemia
  TGI: 17.1 µM
BT-549 breast
  TGI: 54.3 µM
SN12C renal
  TGI: 39.5 µM
SK-MEL-28 melanoma
  TGI: 67.1 µM
T-47D breast
  TGI: 41.4 µM
SK-MEL-2 melanoma
  TGI: 36.7 µM
SK-OV-3 ovarian
  TGI: 93.6 µM
PC-3 prostate
  TGI: > 100 µM
HS 578T breast
  TGI: 40.8 µM
EKVX NSCLC
  TGI: 38.7 µM
UACC-62 melanoma
  TGI: 40.1 µM
M14 melanoma
  TGI: 36.9 µM
HL-60(TB) leukemia
  TGI: 36.1 µM
NCI-H226 lung
  TGI: 55.3 µM
MCF7 breast
  TGI: 26.3 µM
MOLT-4 leukemia
  TGI: 35.7 µM
OVCAR-3 ovarian
  TGI: 31.5 µM
HT29 colon
  TGI: 41.9 µM
A549 NSCLC
  TGI: 43.2 µM
A498 renal
  TGI: 39.6 µM
DU-145 prostate
  TGI: 40.8 µM
NCI-H23 lung
  TGI: 35.9 µM
COLO 205 colon
  TGI: 27.8 µM
SNB-19 CNS
  TGI: 50.9 µM
SNB-75 CNS
  TGI: 37.7 µM
U251 CNS
  TGI: > 100 µM
HCT-116 colon
  TGI: 36.7 µM
HOP-92 NSCLC
  TGI: 82.6 µM
MALME-3M melanoma
  TGI: 57.1 µM
LOX IMVI melanoma
  TGI: 42.8 µM
MDA-N
  TGI: 33.9 µM
MDA-MB-231 breast
  TGI: 97.7 µM
SF-539 CNS
  TGI: 33.3 µM
SF-268 CNS
  TGI: > 100 µM
ACHN renal
  TGI: 62.2 µM
HOP-62 NSCLC
  TGI: 67.8 µM
RPMI-8226 leukemia
  TGI: 42.2 µM
NCI-H460 lung
  TGI: 28 µM
MDA-MB-435
  TGI: 31.5 µM
786-0 renal
  TGI: 31.7 µM
SK-MEL-5 melanoma
  TGI: 23.2 µM
KM12 colon
  TGI: 23.5 µM
NCI/ADR-RES ovarian
  TGI: 65.5 µM
UO-31 renal
  TGI: 30.2 µM
UACC-257 melanoma
  TGI: 68.9 µM
IGROV1 ovarian
  TGI: 60.7 µM
K-562 leukemia
  TGI: 57.7 µM

## COc1ccc(C2c3cc4c(cc3OC(NCCO)C2C)OCO4)cc1 (configuration not stated)
OVCAR-5 ovarian
  TGI: > 100 µM
SF-295 CNS
  TGI: 89.1 µM
SR leukemia
  TGI: 39.9 µM
RXF 393 renal
  TGI: 75.2 µM
TK-10 renal
  TGI: 66.1 µM
SW-620 colon
  TGI: > 100 µM
HCT-15 colon
  TGI: 54.4 µM
CCRF-CEM leukemia
  TGI: 52.4 µM
BT-549 breast
  TGI: 59 µM
SN12C renal
  TGI: 71.7 µM
SK-MEL-28 melanoma
  TGI: 69.1 µM
T-47D breast
  TGI: > 100 µM
SK-MEL-2 melanoma
  TGI: 50.8 µM
SK-OV-3 ovarian
  TGI: 87.6 µM
PC-3 prostate
  TGI: 66.3 µM
HS 578T breast
  TGI: 59.3 µM
EKVX NSCLC
  TGI: 92.5 µM
UACC-62 melanoma
  TGI: > 100 µM
M14 melanoma
  TGI: 84.6 µM
HL-60(TB) leukemia
  TGI: 43.3 µM
NCI-H226 lung
  TGI: 90.2 µM
MCF7 breast
  TGI: 66.7 µM
MOLT-4 leukemia
  TGI: 50 µM
OVCAR-3 ovarian
  TGI: 36.4 µM
HT29 colon
  TGI: 43.5 µM
A549 NSCLC
  TGI: 68.8 µM
A498 renal
  TGI: 48.8 µM
DU-145 prostate
  TGI: > 100 µM
NCI-H23 lung
  TGI: > 100 µM
COLO 205 colon
  TGI: 36.2 µM
SNB-19 CNS
  TGI: > 100 µM
SNB-75 CNS
  TGI: 69.5 µM
U251 CNS
  TGI: 54.9 µM
HCT-116 colon
  TGI: 31 µM
HOP-92 NSCLC
  TGI: 86.1 µM
MALME-3M melanoma
  TGI: 47.7 µM
LOX IMVI melanoma
  TGI: 68.7 µM
HCC-2998 colon
  TGI: 66 µM
MDA-N
  TGI: 63.7 µM
MDA-MB-231 breast
  TGI: 63.3 µM
SF-539 CNS
  TGI: 40.5 µM
SF-268 CNS
  TGI: 72.6 µM
ACHN renal
  TGI: 93.1 µM
HOP-62 NSCLC
  TGI: > 100 µM
RPMI-8226 leukemia
  TGI: 55.3 µM
CAKI-1 renal
  TGI: 77.1 µM
NCI-H460 lung
  TGI: 63.6 µM
MDA-MB-435
  TGI: 59.7 µM
SK-MEL-5 melanoma
  TGI: 44.7 µM
KM12 colon
  TGI: > 100 µM
UO-31 renal
  TGI: 76.8 µM
UACC-257 melanoma
  TGI: 72.4 µM
IGROV1 ovarian
  TGI: > 100 µM
K-562 leukemia
  TGI: 58.8 µM
NCI-H522 lung
  TGI: 47.8 µM

## C=CC(=O)N1C/C(=C\c2ccc(Cl)cc2)C(=O)/C(=C/c2ccc(Cl)cc2)C1
OVCAR-4 ovarian
  TGI: 1.22 µM
OVCAR-5 ovarian
  TGI: 2.1 µM
SF-295 CNS
  TGI: 0.917 µM
SR leukemia
  TGI: > 100 µM
RXF 393 renal
  TGI: 0.659 µM
TK-10 renal
  TGI: 4.01 µM
SW-620 colon
  TGI: 0.887 µM
HCT-15 colon
  TGI: 0.497 µM
BT-549 breast
  TGI: 1.09 µM
SN12C renal
  TGI: 0.704 µM
SK-MEL-28 melanoma
  TGI: 1.6 µM
T-47D breast
  TGI: 6.85 µM
SK-MEL-2 melanoma
  TGI: 2.85 µM
SK-OV-3 ovarian
  TGI: 1.71 µM
PC-3 prostate
  TGI: 0.751 µM
HS 578T breast
  TGI: 1.36 µM
EKVX NSCLC
  TGI: 4.72 µM
UACC-62 melanoma
  TGI: 1.02 µM
M14 melanoma
  TGI: 0.735 µM
NCI-H226 lung
  TGI: 3.03 µM
MCF7 breast
  TGI: 0.845 µM
OVCAR-3 ovarian
  TGI: 1.03 µM
HT29 colon
  TGI: 0.326 µM
A549 NSCLC
  TGI: 1.64 µM
A498 renal
  TGI: 1.25 µM
DU-145 prostate
  TGI: 3.66 µM
NCI-H23 lung
  TGI: 2.15 µM
COLO 205 colon
  TGI: 0.719 µM
SNB-19 CNS
  TGI: 2.67 µM
SNB-75 CNS
  TGI: 1.64 µM
U251 CNS
  TGI: 0.983 µM
HCT-116 colon
  TGI: 0.257 µM
HOP-92 NSCLC
  TGI: 4.25 µM
MALME-3M melanoma
  TGI: 3.84 µM
LOX IMVI melanoma
  TGI: 0.229 µM
HCC-2998 colon
  TGI: 0.739 µM
MDA-N
  TGI: 0.515 µM
MDA-MB-231 breast
  TGI: 1.2 µM
SF-539 CNS
  TGI: 0.419 µM
SF-268 CNS
  TGI: 0.617 µM
ACHN renal
  TGI: 1.02 µM
HOP-62 NSCLC
  TGI: 1.02 µM
CAKI-1 renal
  TGI: 1.32 µM
NCI-H460 lung
  TGI: 1.18 µM
MDA-MB-435
  TGI: 0.785 µM
786-0 renal
  TGI: 0.55 µM
SK-MEL-5 melanoma
  TGI: 5.11 µM
KM12 colon
  TGI: 0.866 µM
NCI/ADR-RES ovarian
  TGI: 9.41 µM
UO-31 renal
  TGI: 1.17 µM
UACC-257 melanoma
  TGI: 3.65 µM
IGROV1 ovarian
  TGI: 0.678 µM
OVCAR-8 ovarian
  TGI: 3.84 µM
